We go through 33 compounds from patent US9212168B2 (priority 2011, dated 2015).

Molecules are shown by their SMILES. Where only a bound is given, the exact number is not on record here.

The first assay has as its system HCV genotype 1a replicon. Kind of assay: HCV genotype 1a replicon assay (NS3 protease activity readout). Type of assay: cell-based, hepatitis C virus. The following applies: HCV genotype 1a replicon. Put shortly:
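EC50 values came from a 4-parameter robust fit of fluorescence (ex 340, em 509 nm) produced by NS3-specific protease in lysates, assayed with 15 μM FRET substrate for 20 min at 37° C, after 48 or 72 hours of compound exposure (0.5% DMSO) of Huh7.5-derived APC89 genotype 1a replicon cells.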
(Replicon systems follow genome replication, usually without infectious particles.)
`COC(=O)N[C@H](C(=O)N1C[C@@H](C)C[C@H]1c1nc(-c2ccc(-c3cc(F)c(NC(=O)c4ccc(N5CCN(C(=O)c6c[nH]cn6)C[C@H]5C)nc4)cc3C(F)(F)F)cc2)c[nH]1)C(C)C` [Example 1-29]: the “Genotype 1a” value was “D (D represents pEC50>10 (EC50<0.1 nM))”. On the same count and under the same terms, the result for `COC(=O)N[C@H](C(=O)N1C[C@@H](C)C[C@H]1c1nc(-c2ccc(-c3ccc(C(=O)Nc4ccc(N5CCN(C(=O)N(C)C)C[C@H]5C)nc4)cc3OC(F)(F)F)cc2)c[nH]1)C(C)C` [Example 4-33] reads “C (C represents pEC50 between and 9 and about 10, (EC50 between 1 nM and 0.1 nM))”; that for `COC(=O)N[C@H](C(=O)N1C[C@@H](C)C[C@H]1c1nc(-c2ccc(-c3cc(F)c(NC(=O)c4ccc(N5CCN(C(=O)C6CC6)C[C@H]5C)nc4)cc3C(F)(F)F)cc2)c[nH]1)C(C)C` [Example 1-52], “C (C represents pEC50 between and 9 and about 10, (EC50 between 1 nM and 0.1 nM))”; that for `CNC(=O)N1C[C@@H](C)N(c2ccc(C(=O)Nc3cc(OC(F)(F)F)c(-c4ccc(-c5c[nH]c([C@@H]6C[C@H](C)CN6C(=O)[C@@H](NC(=O)OC)C(C)(C)C)n5)cc4)cc3Cl)cn2)C[C@@H]1C` [Example 7-1], “D (D represents pEC50>10 (EC50<0.1 nM))”. Same read-out and setting: to `COC(=O)N[C@H](C(=O)N1C[C@@H](OC)C[C@H]1c1nc(-c2ccc(-c3ccc(C(=O)Nc4ccc(N5CCN(C(=O)C(C)(C)CO)C[C@H]5C)nc4)cc3OC(F)(F)F)cc2)c[nH]1)C1CCOCC1` [Example 22-14] belongs “D (D represents pEC50>10 (EC50<0.1 nM))”. On the same count and under the same terms, to `COC(=O)N[C@H](C(=O)N1C[C@@H](OC)C[C@H]1c1nc(-c2ccc(-c3cc(Cl)c(NC(=O)c4ccc(N5CCN(C(=O)NC(C)(C)C)C[C@H]5C)nc4)cc3OC(F)(F)F)cc2)c[nH]1)C1CCOCC1` [Example 28-12] belongs “D (D represents pEC50>10 (EC50<0.1 nM))”. Turning to `COC(=O)NC(C(=O)N1CC(C)CC1c1nc(-c2ccc(-c3cc(Cl)c(NC(=O)c4ccc(N5CCN(C(=O)C6CC6(F)Cl)CC5C)nc4)cc3OC(F)(F)F)cc2)c[nH]1)C(C)C` (mixture of isomers) [Example 1-59], the “Genotype 1a” value is listed as “D (D represents pEC50>10 (EC50<0.1 nM))”. The same measure, in the same setting: the result for `COC(=O)N[C@H](C(=O)N1C[C@@H](C)C[C@H]1c1nc(-c2ccc(-c3ccc(C(=O)Nc4ccc(N5CCN(C(=O)C(C)(C)C)C[C@H]5C)nc4)cc3OC(F)(F)F)cc2)c[nH]1)C(C)C` [Example 4-36] reads “C (C represents pEC50 between and 9 and about 10, (EC50 between 1 nM and 0.1 nM))”; that for `CNC(=O)N1CCC[C@@]1(C)C(=O)N1C[C@@H](C)N(c2ccc(C(=O)Nc3cc(OC(F)(F)F)c(-c4ccc(-c5c[nH]c([C@@H]6C[C@H](C)CN6C(=O)[C@@H](NC(=O)OC)C(C)C)n5)cc4)cc3Cl)cn2)C[C@@H]1C` [Example 1-23], “D (D represents pEC50>10 (EC50<0.1 nM))”. On the same count and under the same terms, to `COC(=O)N[C@H](C(=O)N1C[C@@H](C)C[C@H]1c1nc(-c2ccc(-c3ccc(C(=O)Nc4ccc(N5CCN(C(=O)[C@]6(C)CCCN6C(=O)[C@@H](NC(=O)OC)C(C)C)C[C@H]5C)nc4)cc3OC(F)(F)F)cc2)c[nH]1)C(C)C` [Example 4-3] belongs “D (D represents pEC50>10 (EC50<0.1 nM))”. Same read-out and setting: the result for `COC(=O)N[C@H](C(=O)N1C[C@@H](C)C[C@H]1c1nc(-c2ccc(-c3cc(F)c(NC(=O)c4ccc(N5CCN(C(=O)C(C)(C)C)C[C@H]5C)nc4)cc3C(F)(F)F)cc2)c[nH]1)C(C)C` [Example 1-58] reads “D (D represents pEC50>10 (EC50<0.1 nM))”. In the case of `COC(=O)N[C@H](C(=O)N1C[C@@H](C)C[C@H]1c1nc(-c2ccc(-c3cc(F)c(NC(=O)c4ccc(N5CCN(C(=O)C6CC6)C[C@H]5C)nc4)cc3F)cc2)c[nH]1)C(C)C` [Example 1-83], the “Genotype 1a” value was “C (C represents pEC50 between and 9 and about 10, (EC50 between 1 nM and 0.1 nM))”.

Regarding `CNC(=O)N1C[C@@H](C)N(c2ccc(C(=O)Nc3cc(OC(F)(F)F)c(-c4ccc(-c5c[nH]c([C@@H]6C[C@H](C)CN6C(=O)[C@@H](NC(=O)OC)C6CC6)n5)cc4)cc3Cl)cn2)C[C@@H]1C` [Example 7-3], the “Genotype 1a” value is reported as “D (D represents pEC50>10 (EC50<0.1 nM))”.

On to `COC(=O)N[C@H](C(=O)N1C[C@@H](O)C[C@H]1c1nc(-c2ccc(-c3cc(Cl)c(NC(=O)c4ccc(N5CCN(C(=O)C(C)(C)CO)C[C@H]5C)nc4)cc3OC(F)(F)F)cc2)c[nH]1)C1CCOCC1` [Example 26-11], for which the “Genotype 1a” value is “A (A represents a pEC50 value between 6 and 8 (EC50 between 1 μM and 10 nM))”.

In the case of `COC(=O)N[C@H](C(=O)N1C[C@@H](C)C[C@H]1c1nc(-c2ccc(-c3cc(F)c(NC(=O)c4ccc(N5CCN(C(=O)[C@H]6CC6(C)C)C[C@H]5C)nc4)cc3Cl)cc2)c[nH]1)C(C)C` [Example 1-76], the “Genotype 1a” value was “D (D represents pEC50>10 (EC50<0.1 nM))”. Still for that read-out and setting: to `COC(=O)N[C@H](C(=O)N1C[C@@H](O)C[C@H]1c1nc(-c2ccc(-c3cc(Cl)c(NC(=O)c4ccc(N5CCN(C(=O)C(C)(C)CO)C[C@H]5C)nc4)cc3OC(F)(F)F)cc2)c[nH]1)C(C)C` [Example 26-9] belongs “C (C represents pEC50 between and 9 and about 10, (EC50 between 1 nM and 0.1 nM))”; to `CNC(=O)N1CCC[C@@]1(C)C(=O)N1CCN(c2ccc(C(=O)Nc3cc(OC(F)(F)F)c(-c4ccc(-c5c[nH]c([C@@H]6C[C@H](C)CN6C(=O)[C@@H](NC(=O)OC)C(C)C)n5)cc4)cc3Cl)cn2)[C@H](C)C1` [Example 1-22], “D (D represents pEC50>10 (EC50<0.1 nM))”. Still for that read-out and setting: to `COC(=O)N[C@H](C(=O)N1C[C@@H](C)C[C@H]1c1nc(-c2ccc(-c3ccc(C(=O)Nc4ccc(N5C[C@H](C)N(C(=O)C(C)(C)C)C[C@H]5C)nc4)cc3OC(F)(F)F)cc2)c[nH]1)C(C)C` [Example 4-15] belongs “D (D represents pEC50>10 (EC50<0.1 nM))”; to `COC(=O)NC(C(=O)N1CC(C)CC1c1nc(-c2ccc(-c3cc(F)c(NC(=O)c4ccc(N5CCN(C(=O)C6CC6(F)Cl)CC5C)nc4)cc3OC(F)(F)F)cc2)c[nH]1)C(C)C` (mixture of isomers) [Example 1-60], “D (D represents pEC50>10 (EC50<0.1 nM))”. `COC(=O)N[C@H](C(=O)N1C[C@@H](C)C[C@H]1c1nc(-c2ccc(-c3cc(F)c(NC(=O)c4ccc(N5CCN(C(=O)C6(C)CC6)C[C@H]5C)nc4)cc3OC(F)(F)F)cc2)c[nH]1)C(C)C` [Example 1-79]: the “Genotype 1a” value is “C (C represents pEC50 between and 9 and about 10, (EC50 between 1 nM and 0.1 nM))”.

The same assay, now with this note: Hepatitis C virus, read-out: Genotype 1a, HCV genotype 1a replicon.
`COC(=O)N[C@H](C(=O)N1CC(C)(C)C[C@H]1c1nc(-c2ccc(-c3ccc(C(=O)Nc4ccc(N5CCN(C(=O)C6CC6(C)C)C[C@H]5C)nc4)cc3OC(F)(F)F)cc2)c[nH]1)C(C)C` (stereo partly drawn) [Example 6-8]: the EC50 was 0.1 to 1 nM. Still for that read-out and setting: the result for `COC(=O)N[C@H](C(=O)N1C[C@@H](C)C[C@H]1c1nc(-c2ccc(-c3cc(Cl)c(NC(=O)c4ccc(N5CCN(C(=O)C(C)(C)CO)C[C@H]5C)nc4)cc3OC(F)(F)F)cc2)c(CO)[nH]1)C(C)C` [Example 5-13] reads less than 0.1 nM; that for `COC(=O)N[C@H](C(=O)N1C[C@@H](Oc2ccn(C)n2)C[C@H]1c1nc(-c2ccc(-c3cc(Cl)c(NC(=O)c4ccc(N5CCN(C(=O)C(C)(C)C)C[C@H]5C)nc4)cc3OC(F)(F)F)cc2)c[nH]1)C(C)C` [Example 15-2], 0.1 to 1 nM; that for `COC(=O)N[C@H](C(=O)N1C[C@@H](C)C[C@H]1c1nc(-c2ccc(-c3cc(Cl)c(NC(=O)c4ccc(N5CCN(C(=O)C(C)(C)C)C(CO)C5)nc4)cc3OC(F)(F)F)cc2)c[nH]1)C(C)C` (stereo partly drawn) [Example 14-1], 0.1 to 1 nM. For the compound `COC[C@H]1C[C@@H](c2nc(-c3ccc(-c4cc(Cl)c(NC(=O)c5ccc(N6CCN(C(=O)C(C)(C)C)C[C@H]6C)nc5)cc4OC(F)(F)F)cc3)c[nH]2)N(C(=O)[C@@H](NC(=O)OC)C2CCOCC2)C1` [Example 5-15], the EC50 is less than 0.1 nM. Take `COC(=O)N[C@@H](CSC)C(=O)N1C[C@@H](C)C[C@H]1c1nc(-c2ccc(-c3cc(Cl)c(NC(=O)c4ccc(N5CCN(C(=O)C(C)(C)C)C[C@H]5C)nc4)cc3OC(F)(F)F)cc2)c[nH]1` [Example 13-7]: the EC50 is less than 0.1 nM. For the compound `COC(=O)N[C@H](C(=O)N1C[C@@H](C)C[C@H]1c1nc(-c2ccc(-c3cc(Cl)c(NC(=O)c4ccc(N5CCN(C(=O)C6(N)CC6(C)C)C[C@H]5C)nc4)cc3OC(F)(F)F)cc2)c[nH]1)C(C)C` (stereo partly drawn) [Example 12-9], the EC50 is less than 0.1 nM. Still for that read-out and setting: to `COC(=O)N[C@H](C(=O)N1C[C@@H](C)C[C@H]1c1nc(-c2ccc(-c3cc(Cl)c(NC(=O)c4ccc(N5CCN(C(=O)C(C)(C)C)C[C@H]5C)nc4)cc3OC(F)(F)F)cc2)c[nH]1)C1CCCC1` [Example 13-41] belongs less than 0.1 nM; to `COC(=O)N[C@H](C(=O)N1C[C@@H](C)C[C@H]1c1nc(-c2ccc(-c3cc(Cl)c(NC(=O)c4ccc(N5CCN(C(=O)C(C)(C)OC)C[C@H]5C)nc4)cc3OC(F)(F)F)cc2)c[nH]1)C(C)C` [Example 12-43], less than 0.1 nM. The same measure, in the same setting: the result for `COC(=O)N[C@H](C(=O)N1[C@@H]2C[C@@H]2C[C@H]1c1nc(-c2ccc(-c3cc(Cl)c(NC(=O)c4ccc(N5CCN(C(=O)C(C)(C)C)C[C@H]5C)nc4)cc3C(F)(F)F)cc2)c[nH]1)C(C)C` [Example 8-5] reads 0.1 to 1 nM; that for `C[C@H]1C[C@@H](c2nc(-c3ccc(-c4cc(Cl)c(NC(=O)c5ccc(N6CCN(C(=O)C(C)(C)C)C[C@H]6C)nc5)cc4OC(F)(F)F)cc3)c[nH]2)N(C(=O)C(c2ccccc2)N2CCNCC2)C1` (stereo partly drawn) [Example 13-3], 0.1 to 1 nM. Still for that read-out and setting: the result for `COC[C@H]1C[C@@H](c2nc(-c3ccc(-c4cc(Cl)c(NC(=O)c5ccc(N6CCN(C(=O)C(C)(C)C)C[C@H]6C)nc5)cc4OC(F)(F)F)cc3)c[nH]2)N(C(=O)[C@@H](NC(=O)OC)C(C)C)C1` [Example 15-13] reads less than 0.1 nM.

Take `COC(=O)N[C@H](C(=O)N1[C@H](c2nc(-c3ccc(-c4ccc(C(=O)Nc5ccc(N6CCN(C(=O)[C@]7(C)C[C@@H](O)CN7C(=O)OC(C)(C)C)C[C@H]6C)nc5)cc4OC(F)(F)F)cc3)c[nH]2)C[C@@H]2CCCC[C@@H]21)C(C)C` [Example 6-16]: the EC50 is 1 to 10 nM.
